Results reported in ChEMBL document CHEMBL2073937, “In vitro substrate identification studies for p-glycoprotein-mediated transport: species difference and predictability of in vivo results” (J Pharmacol Exp Ther, 2001).

Key:
[1] = target: T1, ATP-dependent translocase ABCB1 (Homo sapiens, UniProt P08183); test: TP_TRANSPORTER: transepithelial transport (basal to apical) in MDR1-expressing LLC-PK1 cells; format: functional, cell-based; settings: pig
[2] = target: T1, ATP-dependent translocase ABCB1; test: TP_TRANSPORTER: cell accumulation in KB-3-1 and KB-V1 cells; format: functional, cell-based; settings: kb-3-1;kb-v1
[3] = target: T2, ATP-dependent translocase ABCB1 (Mus musculus, UniProt P21447); test: TP_TRANSPORTER: transepithelial transport (basal to apical) in mdr1a-expressing LLC-PK1 cell; format: functional, cell-based; settings: pig
[4] = target: T2, ATP-dependent translocase ABCB1; test: TP_TRANSPORTER: increase in plasma concentration in mdr1a(-/-) mouse; format: functional, organism-based; settings: in vivo
[5] = target: T2, ATP-dependent translocase ABCB1; test: TP_TRANSPORTER: increase in brain concentration in mdr1a(-/-) mouse; format: functional, organism-based; settings: in vivo
[6] = target: T2, ATP-dependent translocase ABCB1; test: TP_TRANSPORTER: no change in plasma concentration in mdr1a(-/-) mouse; format: functional, organism-based; settings: in vivo
[7] = target: T2, ATP-dependent translocase ABCB1; test: TP_TRANSPORTER: no change in brain concentration in mdr1a(-/-) mouse; format: functional, organism-based; settings: in vivo

T2 sequence (P21447 whole entry): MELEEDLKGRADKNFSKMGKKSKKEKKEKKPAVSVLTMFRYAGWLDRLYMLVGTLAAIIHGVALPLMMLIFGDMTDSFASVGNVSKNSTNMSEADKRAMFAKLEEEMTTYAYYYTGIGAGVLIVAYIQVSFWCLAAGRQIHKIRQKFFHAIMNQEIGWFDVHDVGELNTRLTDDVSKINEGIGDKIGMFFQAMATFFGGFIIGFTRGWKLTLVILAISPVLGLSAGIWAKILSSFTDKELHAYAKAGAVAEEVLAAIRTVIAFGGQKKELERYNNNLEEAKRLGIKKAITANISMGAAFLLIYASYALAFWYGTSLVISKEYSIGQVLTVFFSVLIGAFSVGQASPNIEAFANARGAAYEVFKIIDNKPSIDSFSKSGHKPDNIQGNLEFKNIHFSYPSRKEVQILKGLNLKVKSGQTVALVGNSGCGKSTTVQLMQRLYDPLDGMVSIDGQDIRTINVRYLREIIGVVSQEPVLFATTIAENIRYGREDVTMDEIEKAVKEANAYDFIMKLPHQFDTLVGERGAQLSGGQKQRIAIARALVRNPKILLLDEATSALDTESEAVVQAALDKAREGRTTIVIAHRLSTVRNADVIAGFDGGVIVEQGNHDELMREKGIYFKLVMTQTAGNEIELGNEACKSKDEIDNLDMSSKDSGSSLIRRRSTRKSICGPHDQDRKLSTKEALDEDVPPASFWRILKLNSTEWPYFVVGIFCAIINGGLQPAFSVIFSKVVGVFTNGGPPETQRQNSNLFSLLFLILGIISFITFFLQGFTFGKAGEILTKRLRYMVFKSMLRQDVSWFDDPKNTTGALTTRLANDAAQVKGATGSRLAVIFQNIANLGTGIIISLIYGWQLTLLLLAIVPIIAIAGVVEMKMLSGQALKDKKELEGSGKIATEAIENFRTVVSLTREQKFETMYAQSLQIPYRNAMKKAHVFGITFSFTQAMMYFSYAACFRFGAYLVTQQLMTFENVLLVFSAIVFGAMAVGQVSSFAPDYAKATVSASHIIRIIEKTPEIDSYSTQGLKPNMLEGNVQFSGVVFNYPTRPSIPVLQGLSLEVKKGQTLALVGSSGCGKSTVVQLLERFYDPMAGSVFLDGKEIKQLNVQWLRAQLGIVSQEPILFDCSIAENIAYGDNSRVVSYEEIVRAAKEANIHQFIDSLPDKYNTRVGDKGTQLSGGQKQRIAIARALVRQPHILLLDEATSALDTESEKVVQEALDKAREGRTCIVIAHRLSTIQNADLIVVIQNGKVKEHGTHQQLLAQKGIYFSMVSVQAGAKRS
T1 sequence (P08183 whole entry): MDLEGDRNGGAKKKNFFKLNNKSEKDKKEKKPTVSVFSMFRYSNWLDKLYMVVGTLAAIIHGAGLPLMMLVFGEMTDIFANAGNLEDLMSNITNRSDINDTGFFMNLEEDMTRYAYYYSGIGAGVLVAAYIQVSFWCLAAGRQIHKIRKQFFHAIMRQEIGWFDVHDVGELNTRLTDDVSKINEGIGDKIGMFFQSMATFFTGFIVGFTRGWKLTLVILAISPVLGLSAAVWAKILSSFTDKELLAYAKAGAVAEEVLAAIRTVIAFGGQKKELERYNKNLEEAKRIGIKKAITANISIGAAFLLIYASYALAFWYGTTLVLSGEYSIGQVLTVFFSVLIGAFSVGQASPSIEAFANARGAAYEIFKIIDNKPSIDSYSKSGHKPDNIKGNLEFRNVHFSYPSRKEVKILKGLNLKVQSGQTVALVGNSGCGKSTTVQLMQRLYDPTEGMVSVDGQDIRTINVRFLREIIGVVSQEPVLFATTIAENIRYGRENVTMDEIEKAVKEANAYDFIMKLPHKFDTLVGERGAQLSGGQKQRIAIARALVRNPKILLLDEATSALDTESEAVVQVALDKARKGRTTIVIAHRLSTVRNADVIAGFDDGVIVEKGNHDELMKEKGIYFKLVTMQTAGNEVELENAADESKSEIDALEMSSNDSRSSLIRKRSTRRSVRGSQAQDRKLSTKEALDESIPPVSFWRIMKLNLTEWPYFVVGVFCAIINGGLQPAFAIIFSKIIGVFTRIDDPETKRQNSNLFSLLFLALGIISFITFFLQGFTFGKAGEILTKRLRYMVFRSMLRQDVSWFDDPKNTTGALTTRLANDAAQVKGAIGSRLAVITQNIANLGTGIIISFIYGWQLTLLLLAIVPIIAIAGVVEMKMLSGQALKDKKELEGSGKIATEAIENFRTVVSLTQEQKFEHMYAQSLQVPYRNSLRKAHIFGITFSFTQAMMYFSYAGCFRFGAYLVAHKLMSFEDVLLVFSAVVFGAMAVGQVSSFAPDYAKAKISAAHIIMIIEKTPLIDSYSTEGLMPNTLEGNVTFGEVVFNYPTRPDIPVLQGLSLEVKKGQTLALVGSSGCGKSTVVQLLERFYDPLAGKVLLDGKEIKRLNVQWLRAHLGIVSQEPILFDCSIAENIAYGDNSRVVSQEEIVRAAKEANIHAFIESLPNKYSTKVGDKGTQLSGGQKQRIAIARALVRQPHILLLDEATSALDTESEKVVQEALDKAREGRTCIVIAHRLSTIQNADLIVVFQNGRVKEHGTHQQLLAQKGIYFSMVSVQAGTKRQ

Compound | Activity [1] | Activity [2] | Activity [3] | Activity [4] | Activity [5] | Activity [6] | Activity [7]
Cc1nc(N)ccc1CNC(=O)Cn1c(C)cnc(NCCc2ccccc2)c1=O.Cl.Cl.O | substrate [+] | substrate [+] | substrate [+] |  |  |  | 
C[C@H](N)c1ccc(N2CCC(c3nc(-c4cccc(C(F)(F)F)c4)c(-c4ccncc4)n3C)CC2)cc1.[O-][Cl+3]([O-])([O-])O | substrate [+] | substrate [+] | substrate [+] | substrate [+] | substrate [+] |  | 
CC(C)(C)NC(=O)[C@@H]1CN(Cc2cc3ccccc3o2)CCN1[C@@H](Cc1ccccc1)[C@@H](O)C[C@@H](Cc1ccccc1)C(=O)NC1c2ccccc2C[C@H]1O (some centres undefined) |  | substrate [+] | substrate [+] | substrate [+] | substrate [+] |  | 
Cc1cccc(NC(=O)NC2N=C(c3ccccc3)c3ccccc3N(C)C2=O)c1 (centres undefined) | substrate [+] | substrate [+] | substrate [+] | substrate [+] | substrate [+] |  | 
C[C@@H](O)[C@H]1C(=O)N2C(C(=O)[O-])=C(S[C@@H]3CN[C@H](C(=O)Nc4cccc(C(=O)O)c4)C3)[C@H](C)[C@H]12.O.[Na+] | is not a substrate [-] | is not a substrate [-] | is not a substrate [-] |  |  |  | 
CC(C)(C)NC(=O)[C@@H]1CN(Cc2cccnc2)CCN1C[C@@H](O)C[C@@H](Cc1ccccc1)C(=O)N[C@H]1c2ccccc2C[C@H]1O.O |  | substrate [+] | substrate [+] | substrate [+] | substrate [+] |  | 
CN1C(=O)C(NC(=O)c2cc3ccccc3[nH]2)N=C(c2ccccc2)c2ccccc21 (racemic) | is not a substrate [-] | is not a substrate [-] | is not a substrate [-] |  |  |  | 
CC[C@H](C)C[C@H](C)CCCCCCCCC(=O)N[C@H]1C[C@@H](O)[C@@H](NCCN)NC(=O)[C@@H]2[C@@H](O)CCN2C(=O)[C@H]([C@H](O)CCN)NC(=O)[C@H]([C@H](O)[C@@H](O)c2ccc(O)cc2)NC(=O)[C@@H]2C[C@@H](O)CN2C(=O)[C@H]([C@@H](C)O)NC1=O [CASPOFUNGIN] | is not a substrate [-] | is not a substrate [-] | is not a substrate [-] |  |  |  | 
CN1C(=O)CN=C(c2ccccc2)c2cc(Cl)ccc21 [DIAZEPAM] | is not a substrate [-] | is not a substrate [-] | is not a substrate [-] |  |  | is not a substrate [-] | is not a substrate [-]
N#Cc1ccc(Cn2cncc2CN2CCN(c3cccc(Cl)c3)C(=O)C2)cc1 [L-778123 FREE BASE] | substrate [+] | substrate [+] | substrate [+] |  |  |  | 
CC(=O)[C@H]1CC[C@H]2[C@@H]3CCC4=CC(=O)CC[C@]4(C)[C@H]3CC[C@]12C [PROGESTERONE] | substrate [+] | is not a substrate [-] | is not a substrate [-] |  |  |  | 
CC[C@]1(O)C[C@@H]2CN(CCc3c([nH]c4ccccc34)[C@@](C(=O)OC)(c3cc4c(cc3OC)N(C)[C@H]3[C@@](O)(C(=O)OC)[C@H](OC(C)=O)[C@]5(CC)C=CCN6CC[C@]43[C@@H]65)C2)C1 [VINBLASTINE] |  | substrate [+] |  | substrate [+] | substrate [+] |  | 
